Tests used:
[1] = test system: GBP1; experiment: cell-based reporter assay, OVCAR-8 stably transfected with GBP-1-luciferase; conditions: OVCAR-8 GBP-1-luciferase
From the text: Exemplary compounds (1)-(17) and previously identified compound SU093 (Andreoli, M., Persico, M.; Kumar, A.; Orteca, N.; Kumar, V.; Pepe, A.; Mahalingam, S.; Alegria, A. E.; Petrella, L.; Sevciunaite, L.; Camperchioli, A.; Mariani, M.; Di Dato, A.; Novellino, E.; Scambia, G., Malhotra, S. V.; Ferlini, C.; Fattorusso, C., Identification of the First Inhibitor of the GBP1:PIM1 Interaction. Implications for the Development of a New Class of Anticancer Agents against Paclitaxel Resistant Cancer Cells. Journal of Medicinal Chemistry 2014, 57 (19), 7916-7932) were tested for GBP1 inhibition using a cell-based reporter assay in ovarian cancer cell line OVCAR-8 stably transfected with GBP-1-luciferase. Tables 1 and 2 below outlines the percentage of GBP1 expression in OVCAR-8 cells for each of the 17 compounds tested.

[2] = test system: ID-8 tumor xenograft; experiment: Ovarian ID-8 tumor xenograft in C57BL6 mice; format: in vivo; conditions: ID-8, 20 mg/kg IP daily
From the text: An immunocompetent syngeneic mouse model was used to evaluate in vivo antitumor effect of SU093 and SU056 (also referred to herein as Compound (I)) for ovarian cancer. C57BL6 female mice (n=5/group) were subcutaneously injected in the right flank with 5×10^6 ID-8 cells mixed with matrigel. From the day following xenograft implantation, mice were monitored regularly for tumor growth and once the tumors reached approximately 100 mm^3, the mice were randomly divided into three groups and respective treatments were given.
Group I (vehicle control): 100 μl of 10% PEG300 (w/v) in saline;
Group II: mice treated with SU093 (20 mg/kg); and
Group III: mice treated with SU056 (20 mg/kg).
Doses were administered intraperitoneally (IP) for 7 days/week for 42 days and the mice were sacrificed on day 43. Tumor sizes were measured twice weekly using digital caliper and tumor volume was calculated by the formula: 0.5236 L1 (L2)^2, where L1 is long diameter, and L2 is short diameter.

[3] = test system: SCC-90 tumor xenograft; experiment: Head and neck SCC-90 tumor xenograft in nude mice; format: in vivo; conditions: SCC-90, nude mice
Procedure: An immunodeficient nude mice model was also used to study the in vivo potential of SU093 and SU056 for head and neck cancer. Nude mice (n=3/group) were subcutaneously injected in the right flank with 5×10^6 SCC-90 cells mixed with matrigel and observed regularly until the tumor size reached about 200 mm^3. The treatment regime with drugs including dose, formulation and route of delivery was similar to ovarian cancer study discussed above. Doses of SU093 and SU056 were administered daily until 35 days and mice were sacrificed thereafter. […] At the end of 35 days, calculated tumor volume/mouse was 860.33±21.78 mm^3, 694.67±14.64 mm^3, and 435.00±10.81 mm^3 for control, SU093 and SU056 treatment groups, respectively. This equates to a 20% and 50% reduction in tumor volume for SU093 and SU056 treatment groups, respectively. A decrease in tumor weight of about 21% (P value not significant) and 54% (P<0.002) was also observed for the SU093 and SU56 treatment groups, respectively.

Question: With O=C1OCC2=C1C(c1cccc(F)c1)c1cc3c(cc1N2CCO)OCO3 (centres unmarked) [SU056] as the molecule, how does the “% GBP1 expression OVCAR-8 @5 nM” value ([1]; 5 nM) read?
Answer: Its value is 54.16%.

Question: What about the “% GBP1 expression OVCAR-8 @10 nM” value ([1]; 10 nM) of the same molecule?
Answer: The value was 43.36%.

Question: And the “reduction in tumor volume” value ([2]; 42 days, vs control)?
Answer: The value was 49.55%.

Question: What about the tumor weight decreased ([2]; 42 days, vs control) of the same molecule?
Answer: The tumor weight decreased was 53.44%.

Question: What about the tumor volume/mouse ([2]; end of 6 weeks) of the same molecule?
Answer: Its tumor volume/mouse is 257.39±21.6 mm^3.

Question: What about the tumor volume/mouse ([3]; 20 mg/kg IP daily, end of 35 days) of the same molecule?
Answer: The tumor volume/mouse was 435.00±10.81 mm^3.

Question: And the “decrease in tumor weight” value ([3]; 35 days, vs control)?
Answer: Its value is ~54%.

Question: What about the “reduction in tumor volume” value ([3]; 35 days, vs control) of the same molecule?
Answer: The value was 50%.
